# Reference: patent US9290777B2, “Putative cytokinin receptor and methods for use thereof” (NATIONAL UNIVERSITY OF SINGAPORE, priority 2007, dated 2016)
# Tested on: ARR6
# Assay: qRT-PCR of cytokinin responsive gene after BA pulse, fold change vs untreated wild type
# Assay type: cell-based, Arabidopsis thaliana
# Method: For quantitative real-time PCR (qRT-PCR) analysis of cytokinin-inducible gene expression, seeds were germinated on MS medium with 3% (w/v) sucrose and grown for 6 days. Cytokinin treatment was carried out by incubating seedlings in the same MS+sucrose liquid medium (no agar) supplemented with 0, 0.01, 0.1, 1 or 5 μM [solubilized in 0.1% dimethylsulfoxide (DMSO) and diluted with the MS medium] for 5 min, 15 min, 30 min or 1 h. The control seedlings were incubated with DMSO (0.1%, the concentration used to dissolve cytokinins for the treatment) for the corresponding durations and used for expression analysis. Before RNA preparation, WT, OE and AS seedlings were pooled and stored in RNAlater solution (Qiagen, Valencia, Calif.). Total RNA was extracted using the Rneasy Plant Mini Kit (Qiagen). SYBRgreen RT-PCR reagents (Applied Biosystems) were used to synthesize double-stranded cDNA. The number of transcripts present in biological replicates each of WT, OE and AS seedlings, with or without BA and DMSO, was determined from three independent replicates. Fold induction of the transcripts was calculated according to the manufacturer's instructions (ABI Prism 7700 Sequence Detection System, User Bulletin #2).
structure (smiles),measurement,setting,value
c1ccc(CNc2ncnc3nc[nH]c23)cc1 [benzyladenine],ARR6 fold change,"BA 0.01 μM, 5 min, AS1, ↑ up",4.12↑
same,ARR6 fold change,"BA 0.01 μM, 5 min, AS8, ↑ up",7.1↑
same,ARR6 fold change,"BA 0.01 μM, 5 min, AS21, ↑ up",9.2↑
same,ARR6 fold change,"BA 0.01 μM, 5 min, OE1, ↓ down",5.51↓
same,ARR6 fold change,"BA 0.01 μM, 5 min, OE12, ↓ down",6.87↓
same,ARR6 fold change,"BA 0.01 μM, 5 min, OE18, ↓ down",8.56↓
same,ARR6 fold change,"BA 0.01 μM, 5 min, Wild type, ↑ up",4.13↑
same,ARR6 fold change,"BA 0.01 μM, 15 min, AS1, ↑ up",4.57↑
same,ARR6 fold change,"BA 0.01 μM, 15 min, AS8, ↑ up",7.41↑
same,ARR6 fold change,"BA 0.01 μM, 15 min, AS21, ↑ up",9.58↑
same,ARR6 fold change,"BA 0.01 μM, 15 min, OE1, ↓ down",5.33↓
same,ARR6 fold change,"BA 0.01 μM, 15 min, OE12, ↓ down",6.56↓
same,ARR6 fold change,"BA 0.01 μM, 15 min, OE18, ↓ down",8.32↓
same,ARR6 fold change,"BA 0.01 μM, 15 min, Wild type, ↑ up",4.67↑
same,ARR6 fold change,"BA 0.01 μM, 30 min, AS1, ↑ up",5.98↑
same,ARR6 fold change,"BA 0.01 μM, 30 min, AS8, ↑ up",7.86↑
same,ARR6 fold change,"BA 0.01 μM, 30 min, AS21, ↑ up",9.79↑
same,ARR6 fold change,"BA 0.01 μM, 30 min, OE1, ↓ down",5.11↓
same,ARR6 fold change,"BA 0.01 μM, 30 min, OE12, ↓ down",6.13↓
same,ARR6 fold change,"BA 0.01 μM, 30 min, OE18, ↓ down",8.13↓
same,ARR6 fold change,"BA 0.01 μM, 30 min, Wild type, ↑ up",4.98↑
same,ARR6 fold change,"BA 0.01 μM, 1 h, AS1, ↑ up",6.2↑
same,ARR6 fold change,"BA 0.01 μM, 1 h, AS8, ↑ up",7.98↑
same,ARR6 fold change,"BA 0.01 μM, 1 h, AS21, ↑ up",10.15↑
same,ARR6 fold change,"BA 0.01 μM, 1 h, OE1, ↓ down",4.91↓
same,ARR6 fold change,"BA 0.01 μM, 1 h, OE12, ↓ down",5.06↓
same,ARR6 fold change,"BA 0.01 μM, 1 h, OE18, ↓ down",7.98↓
same,ARR6 fold change,"BA 0.01 μM, 1 h, Wild type, ↑ up",5.15↑
same,ARR6 fold change,"BA 0.1 μM, 5 min, AS1, ↑ up",6.14↑
same,ARR6 fold change,"BA 0.1 μM, 5 min, AS8, ↑ up",8.12↑
same,ARR6 fold change,"BA 0.1 μM, 5 min, AS21, ↑ up",10.31↑
same,ARR6 fold change,"BA 0.1 μM, 5 min, OE1, ↓ down",5.1↓
same,ARR6 fold change,"BA 0.1 μM, 5 min, OE12, ↓ down",5.91↓
same,ARR6 fold change,"BA 0.1 μM, 5 min, OE18, ↓ down",7.89↓
same,ARR6 fold change,"BA 0.1 μM, 5 min, Wild type, ↑ up",5.36↑
same,ARR6 fold change,"BA 0.1 μM, 15 min, AS1, ↑ up",6.39↑
same,ARR6 fold change,"BA 0.1 μM, 15 min, AS8, ↑ up",8.32↑
same,ARR6 fold change,"BA 0.1 μM, 15 min, AS21, ↑ up",10.46↑
same,ARR6 fold change,"BA 0.1 μM, 15 min, OE1, ↓ down",5.04↓
same,ARR6 fold change,"BA 0.1 μM, 15 min, OE12, ↓ down",5.71↓
same,ARR6 fold change,"BA 0.1 μM, 15 min, OE18, ↓ down",5.72↓
same,ARR6 fold change,"BA 0.1 μM, 15 min, Wild type, ↑ up",5.58↑
same,ARR6 fold change,"BA 0.1 μM, 30 min, AS1, ↑ up",6.69↑
same,ARR6 fold change,"BA 0.1 μM, 30 min, AS8, ↑ up",8.57↑
same,ARR6 fold change,"BA 0.1 μM, 30 min, AS21, ↑ up",10.68↑
same,ARR6 fold change,"BA 0.1 μM, 30 min, OE1, ↓ down",4.9↓
same,ARR6 fold change,"BA 0.1 μM, 30 min, OE12, ↓ down",5.59↓
same,ARR6 fold change,"BA 0.1 μM, 30 min, OE18, ↓ down",5.36↓
same,ARR6 fold change,"BA 0.1 μM, 30 min, Wild type, ↑ up",5.89↑
same,ARR6 fold change,"BA 0.1 μM, 1 h, AS1, ↑ up",6.98↑
same,ARR6 fold change,"BA 0.1 μM, 1 h, AS8, ↑ up",8.99↑
same,ARR6 fold change,"BA 0.1 μM, 1 h, AS21, ↑ up",10.97↑
same,ARR6 fold change,"BA 0.1 μM, 1 h, OE1, ↓ down",4.67↓
same,ARR6 fold change,"BA 0.1 μM, 1 h, OE12, ↓ down",4.61↓
same,ARR6 fold change,"BA 0.1 μM, 1 h, OE18, ↓ down",5.01↓
same,ARR6 fold change,"BA 0.1 μM, 1 h, Wild type, ↑ up",5.99↑
same,ARR6 fold change,"BA 1.0 μM, 5 min, AS1, ↑ up",7.43↑
same,ARR6 fold change,"BA 1.0 μM, 5 min, AS8, ↑ up",9.01↑
same,ARR6 fold change,"BA 1.0 μM, 5 min, AS21, ↑ up",10.99↑
same,ARR6 fold change,"BA 1.0 μM, 5 min, OE1, ↓ down",4.96↓
same,ARR6 fold change,"BA 1.0 μM, 5 min, OE12, ↓ down",5.19↓
same,ARR6 fold change,"BA 1.0 μM, 5 min, OE18, ↓ down",4.36↓
same,ARR6 fold change,"BA 1.0 μM, 5 min, Wild type, ↑ up",6.1↑
same,ARR6 fold change,"BA 1.0 μM, 15 min, AS1, ↑ up",7.68↑
same,ARR6 fold change,"BA 1.0 μM, 15 min, AS8, ↑ up",9.43↑
same,ARR6 fold change,"BA 1.0 μM, 15 min, AS21, ↑ up",11.12↑
same,ARR6 fold change,"BA 1.0 μM, 15 min, OE1, ↓ down",4.71↓
same,ARR6 fold change,"BA 1.0 μM, 15 min, OE12, ↓ down",5.01↓
same,ARR6 fold change,"BA 1.0 μM, 15 min, OE18, ↓ down",4.21↓
same,ARR6 fold change,"BA 1.0 μM, 15 min, Wild type, ↑ up",6.31↑
same,ARR6 fold change,"BA 1.0 μM, 30 min, AS1, ↑ up",7.73↑
same,ARR6 fold change,"BA 1.0 μM, 30 min, AS8, ↑ up",9.69↑
same,ARR6 fold change,"BA 1.0 μM, 30 min, AS21, ↑ up",11.35↑
same,ARR6 fold change,"BA 1.0 μM, 30 min, OE1, ↓ down",4.49↓
same,ARR6 fold change,"BA 1.0 μM, 30 min, OE12, ↓ down",4.89↓
same,ARR6 fold change,"BA 1.0 μM, 30 min, OE18, ↓ down",4.01↓
same,ARR6 fold change,"BA 1.0 μM, 30 min, Wild type, ↑ up",6.59↑
same,ARR6 fold change,"BA 1.0 μM, 1 h, AS1, ↑ up",8.01↑
same,ARR6 fold change,"BA 1.0 μM, 1 h, AS8, ↑ up",9.93↑
same,ARR6 fold change,"BA 1.0 μM, 1 h, AS21, ↑ up",11.76↑
same,ARR6 fold change,"BA 1.0 μM, 1 h, OE1, ↓ down",3.21↓
same,ARR6 fold change,"BA 1.0 μM, 1 h, OE12, ↓ down",3.56↓
same,ARR6 fold change,"BA 1.0 μM, 1 h, OE18, ↓ down",3.01↓
same,ARR6 fold change,"BA 1.0 μM, 1 h, Wild type, ↑ up",6.87↑
same,ARR6 fold change,"BA 5.0 μM, 5 min, AS1, ↑ up",7.98↑
same,ARR6 fold change,"BA 5.0 μM, 5 min, AS8, ↑ up",9.98↑
same,ARR6 fold change,"BA 5.0 μM, 5 min, AS21, ↑ up",11.43↑
same,ARR6 fold change,"BA 5.0 μM, 5 min, OE1, ↓ down",4.19↓
same,ARR6 fold change,"BA 5.0 μM, 5 min, OE12, ↓ down",4.67↓
same,ARR6 fold change,"BA 5.0 μM, 5 min, OE18, ↓ down",3.45↓
same,ARR6 fold change,"BA 5.0 μM, 5 min, Wild type, ↑ up",7.52↑
same,ARR6 fold change,"BA 5.0 μM, 15 min, AS1, ↑ up",8.01↑
same,ARR6 fold change,"BA 5.0 μM, 15 min, AS8, ↑ up",10.07↑
same,ARR6 fold change,"BA 5.0 μM, 15 min, AS21, ↑ up",11.56↑
same,ARR6 fold change,"BA 5.0 μM, 15 min, OE1, ↓ down",4.01↓
same,ARR6 fold change,"BA 5.0 μM, 15 min, OE12, ↓ down",4.62↓
same,ARR6 fold change,"BA 5.0 μM, 15 min, OE18, ↓ down",3.18↓
same,ARR6 fold change,"BA 5.0 μM, 15 min, Wild type, ↑ up",7.69↑
same,ARR6 fold change,"BA 5.0 μM, 30 min, AS1, ↑ up",8.23↑
same,ARR6 fold change,"BA 5.0 μM, 30 min, Wild type, ↑ up",7.89↑
